For the experiment, the system named is ABCA1 mRNA. Briefly: ABCA1 mRNA induction in THP-1 cells, QuantiGene branched DNA assay. It counts as cell-based. As to conditions: 18-20 hours; for fold induction at 10 µM: Homo sapiens, read-out: ABCA1 Induction Fold Increase over DMSO Vehicle; for ABCA1 Induction Fold Increase over DMSO Vehicle: 10 μM. The protocol: Modulation of expression of ABCA1 mRNA levels by the compounds of the invention was determined in the following assays.
Induction of ABC1 in THP-1 cells, was measured using QuantiGene® branched DNA assay as per manufacturer's instructions. Cultures of THP-1 were grown to subconfluence in DMEM/10% FBS before replacement with DMEM/BSA and 10 and 3 μM concentrations of the test compounds in DMSO for 18-20 hours. After treatment of cells with compounds, the cells were lysed with lysis buffer at 37° C. for 20 minutes. The cell lysate and ABCA1 specific probe (Genospectra, Inc., Fremont, Calif.) mix were added to the 96 well capture plate and hybridized at 53° C. for 16-18 hours. The signal was amplified using the amplifier and label probes provided with the QuantiGene® assay followed by addition of a luminescent alkaline phosphatase substrate, dioxitane. Luminescence was quantified in Victor V plate reader.
Step 1 • Cells are lysed to release mRNA in the presence of target probes. Target mRNA from lysed cells was then captured by hybridization and transferred to the Capture Plate.
Step 2 • Signal amplification was performed by hybridization of the bDNA Amplifier and Label Probe.
Step 3 • Addition of chemiluminescence substrate yielded a QuantiGene® signal proportional to the amount of mRNA present in the sample.
Table 1 presents the relative fold increase in ABCA1 expression over DMSO for compounds of the invention when tested at a concentration of 10 μM.

For the molecule `Cc1ccc(CNC(=O)C2CCC(CN(Cc3ccccc3)S(=O)(=O)c3ccc(C)c(Cl)c3)CC2)cc1` (centres unmarked) [Compound 25, [4-({[(3-chloro-4-methylphenyl)sulfonyl]benzylamino}methyl)cyclohexyl]-N-[(4-methylphenyl)methyl]carboxamide], the fold induction at 10 µM was determined as 3.5.
“N-[(4-methylphenyl)methyl](4-{[(naphthylsulfonyl)benzylamino]methyl}cyclohexyl)carboxamide [Compound 38]”: the “ABCA1 Induction Fold Increase over DMSO Vehicle” value came out at 5.0 fold.
Consider `Cc1ccc(CNC(=O)C2CCC(CN(Cc3ccccc3)S(=O)(=O)c3ccc(-c4ccccc4)cc3)CC2)cc1` (centres unmarked) [Compound 48, N-[(4-methylphenyl)methyl][4-({benzyl[(4-phenylphenyl)sulfonyl]amino}methyl)cyclohexyl]carboxamide], for which the fold induction at 10 µM turned out to be 2.9.
As to `COc1ccc(S(=O)(=O)N(Cc2ccccc2)CC2CCC(C(=O)NCc3ccc(C)cc3)CC2)cc1OC` (centres unmarked) [Compound 18, [4-({[(3,4-dimethoxyphenyl)sulfonyl]benzylamino}methyl)cyclohexyl]-N-[(4-methylphenyl)methyl]carboxamide], the fold induction at 10 µM is 1.6.
On the same count and under the same terms, for `Cc1ccc(CNC(=O)C2CCC(CN(Cc3ccccc3)S(=O)(=O)c3ccc(F)cc3F)CC2)cc1` (centres unmarked) [Compound 10, [4-({[(2,4-difluorophenyl)sulfonyl]benzylamino}methyl)cyclohexyl]-N-[(4-methylphenyl)methyl]carboxamide] the value was 2.2; for `Cc1ccc(CNC(=O)C2CCC(CN(Cc3ccccc3)S(=O)(=O)c3ccc(F)c(F)c3F)CC2)cc1` (centres unmarked) [Compound 16, N-[(4-methylphenyl)methyl][4-({benzyl[(2,3,4-trifluorophenyl)sulfonyl]amino}methyl)cyclohexyl]carboxamide], 1.9.
`Cc1ccc(CNC(=O)C2CCC(CN(Cc3ccccc3)S(=O)(=O)c3cc(F)ccc3F)CC2)cc1` (centres unmarked) [Compound 19, [4-({[(2,5-difluorophenyl)sulfonyl]benzylamino}methyl)cyclohexyl]-N-[(4-methylphenyl)methyl]carboxamide]: the fold induction at 10 µM is 4.9.
On to “{4-[({[4-(methylethyl)phenyl]sulfonyl}benzylamino)methyl]cyclohexyl}-N-[(4-methylphenyl)methyl]carboxamide [Compound 28]”, for which the “ABCA1 Induction Fold Increase over DMSO Vehicle” value was 2.7 fold.
Turning to `Cc1ccc(CNC(=O)C2CCC(CN(Cc3ccccc3)S(=O)(=O)c3ccc4ccccc4c3)CC2)cc1` (centres unmarked) [Compound 41, N-[(4-methylphenyl)methyl](4-{[(2-naphthylsulfonyl)benzylamino]methyl}cyclohexyl)carboxamide], the fold induction at 10 µM was found to be 5.2.
Consider `Cc1ccc(CNC(=O)C2CCC(CN(Cc3ccccc3)S(=O)(=O)c3cccc(Cl)c3)CC2)cc1` (centres unmarked) [Compound 20, [4-({[(3-chlorophenyl)sulfonyl]benzylamino}methyl)cyclohexyl]-N-[(4-methylphenyl)methyl]carboxamide], for which the fold induction at 10 µM was determined as 4.3.
Take `Cc1ccc(CNC(=O)C2CCC(CN(Cc3ccccc3)S(=O)(=O)c3ccc(Cl)cc3)CC2)cc1` (centres unmarked) [Compound 44, [4-({[(4-chlorophenyl)sulfonyl]benzylamino}methyl)cyclohexyl]-N-[(4-methylphenyl)methyl]carboxamide]: the fold induction at 10 µM came out at 3.2.
On the same count and under the same terms, for `CC(=O)Nc1nc(C)c(S(=O)(=O)N(Cc2ccccc2)CC2CCC(C(=O)NCc3ccc(C)cc3)CC2)s1` (centres unmarked) [Compound 30, N-[4-methyl-5-({[(4-{N-[(4-methylphenyl)methyl]carbamoyl}cyclohexyl)methyl]benzylamino}sulfonyl)-1,3-thiazol-2-yl]acetamide] the value was 3.9; for `Cc1ccc(CNC(=O)C2CCC(CN(Cc3ccccc3)S(=O)(=O)c3cc(Cl)ccc3Cl)CC2)cc1` (centres unmarked) [Compound 27, [4-({[(2,5-dichlorophenyl)sulfonyl]benzylamino}methyl)cyclohexyl]-N-[(4-methylphenyl)methyl]carboxamide], 3.7.
As to `Cc1ccc(CNC(=O)C2CCC(CN(Cc3ccccc3)S(=O)(=O)c3ccccc3)CC2)cc1` (centres unmarked) [Compound 4, N-[(4-methylphenyl)methyl](4-{[benzyl(phenylsulfonyl)amino]methyl}cyclohexyl)carboxamide], the fold induction at 10 µM came out at 3.8.
On to `Cc1ccc(CNC(=O)[C@H]2CC[C@H](CN([C@@H](C)c3ccccc3)S(=O)(=O)c3ccccc3)CC2)cc1` [Compound 6, (4-{[((1S)-1-phenylethyl)(phenylsulfonyl)amino]methyl}cyclohexyl)-N-[(4-methylphenyl)methyl]carboxamide], for which the fold induction at 10 µM worked out at 3.2.
Turning to `Cc1ccc(CNC(=O)C2CCC(CN(Cc3ccccc3)S(=O)(=O)c3ccc(C)cc3)CC2)cc1` (centres unmarked) [Compound 43, N-[(4-methylphenyl)methyl][4-({[(4-methylphenyl)sulfonyl]benzylamino}methyl)cyclohexyl]carboxamide], the fold induction at 10 µM was found to be 5.4.
Take `Cc1ccc(CNC(=O)C2CCC(CN(Cc3ccccc3)S(=O)(=O)c3ccc(F)c(Cl)c3)CC2)cc1` (centres unmarked) [Compound 40, [4-({[(3-chloro-4-fluorophenyl)sulfonyl]benzylamino}methyl)cyclohexyl]-N-[(4-methylphenyl)methyl]carboxamide]: the fold induction at 10 µM came out at 2.6.
Still for that read-out and setting: for `COc1cccc(S(=O)(=O)N(Cc2ccccc2)CC2CCC(C(=O)NCc3ccc(C)cc3)CC2)c1` (centres unmarked) [Compound 7, [4-({[(3-methoxyphenyl)sulfonyl]benzylamino}methyl)cyclohexyl]-N-[(4-methylphenyl)methyl]carboxamide] the value was 5.4; for `Cc1ccc(CNC(=O)C2CCC(CN(Cc3ccccc3)S(=O)(=O)c3ccc(Cl)cc3Cl)CC2)cc1` (centres unmarked) [Compound 14, [4-({[(2,4-dichlorophenyl)sulfonyl]benzylamino}methyl)cyclohexyl]-N-[(4-methylphenyl)methyl]carboxamide], 3.5; for `Cc1ccc(CNC(=O)C2CCC(CN(Cc3ccccc3)S(=O)(=O)c3cccc(C(F)(F)F)c3)CC2)cc1` (centres unmarked) [Compound 36, N-[(4-methylphenyl)methyl]{4-[(benzyl{[3-(trifluoromethyl)phenyl]sulfonyl}amino)methyl]cyclohexyl}carboxamide], 2.7.

Source of the values: patent publication US7579504B2, “ABCA1 elevating compounds” (Gilead Sciences, Inc., priority 2005, dated 2009).
